Experimental data published in PMC8880564, “Design, Synthesis, and Biological Evaluation of a Novel VEGFR-2 Inhibitor Based on a 1,2,5-Oxadiazole-2-Oxide Scaffold with MAPK Signaling Pathway Inhibition” (Pharmaceuticals, 2022).

Experiments:
[1] = tested on: cancer cells; experiment: MTT anti-proliferative test of des-NO-releasing compounds; type: cell-based, human; conditions: at concentrations as high as 50 µM
Protocol: (§1) In addition, the morphological changes in 12b-treated cancer cell lines at concentrations of 6.25 and 12.50 µM are shown in Figure 6.
(§2) According to the procedures of Skehan et al. (with minor modifications), the cancer or normal cells were seeded in a 96-well plate (100 µL/well). After overnight incubation at 37 °C and 5% CO2, the cells were incubated with 50 µM of each tested compound or DMSO (0.5% v/v). After 48 h of incubation, MTT (3-(4,5-dimethylthiazoyl)-2,5-diphenyl-tetrazolium bromide) 5 mg/mL Phosphate-Buffered Saline (PBS) was added, and the plate was incubated for 4 h. After that, acidified sodium dodecyl sulfate (SDS) solution (10% SDS containing 0.01N HCl in 1× PBS) was used to solubilize formazan crystals. The absorbance was measured after 14 h of incubation at λ570–630 nm by a Biotek plate reader (Gen5™).

[2] = tested on: A2780CP; experiment: MTT cell viability assay; type: cell-based; conditions: Homo sapiens, A2780C/P, Ovarian, 48 h, ± SD of triplicates
Protocol: as §1, §2

[3] = tested on: A2780; experiment: MTT cell viability assay; type: cell-based; conditions: Homo sapiens, Ovarian, 48 h, ± SD of triplicates
Protocol: as §1, §2

[4] = tested on: HT-29; experiment: MTT cell viability assay; type: cell-based; conditions: Homo sapiens, Colon, 48 h, ± SD of triplicates
Protocol: as §1, §2

[5] = tested on: HepG2; experiment: MTT cell viability assay; type: cell-based; conditions: Homo sapiens, Liver, 48 h, ± SD of triplicates
Protocol: as §1, §2

[6] = tested on: MCF-7; experiment: MTT cell viability assay; type: cell-based; conditions: Homo sapiens, MCF7, Breast, 48 h, ± SD of triplicates
Protocol: as §1, §2

[7] = tested on: MDA-MB-231; experiment: MTT cell viability assay; type: cell-based; conditions: Homo sapiens, Breast, 48 h, ± SD of triplicates
Protocol: as §1, §2

[8] = tested on: SKOV-3; experiment: MTT cell viability assay; type: cell-based; conditions: Homo sapiens, SK-OV-3, Ovarian, 48 h, ± SD of triplicates
Protocol: as §1, §2

With `Nc1ccc(Nc2nc(C(F)(F)F)nc3c2cnn3-c2ccc(Br)cc2)cc1` [15a, N1-(1-(4-bromophenyl)-6-(trifluoromethyl)-1H-pyrazolo[3,4-d]pyrimidin-4-yl)benzene-1,4-diamine] as the compound, how does the “inhibition of the proliferation of cancer cells” value [1] read?
Its value is “did not inhibit the proliferation of cancer cells”.

How did the “inhibition of the proliferation of cancer cells” value [1] turn out when `Cc1nn(-c2ccc(Br)cc2)c2nc(C(F)(F)F)nc(Nc3ccc(N)cc3)c12` [15b, N1-(1-(4-bromophenyl)-3-methyl-6-(trifluoromethyl)-1H-pyrazolo[3,4-d]pyrimidin-4-yl)benzene-1,4-diamine] was run?
The value was “did not inhibit the proliferation of cancer cells”.

How did the IC50 [2] turn out when `CNC(=O)c1cc(Oc2ccc(NC(=O)Nc3ccc(Cl)c(C(F)(F)F)c3)cc2)ccn1` [Sorafenib, sorafenib, reference compound] was run?
Its IC50 is 15.2 ± 0.1 µM.

What about the IC50 [3] of the same compound?
The IC50 was 10.5 ± 0.5 µM.

And the IC50 [4]?
Its IC50 is 11 ± 0.2 µM.

And the IC50 [5]?
The IC50 was 14 ± 0.4 µM.

And the IC50 [6]?
Its IC50 is 5.1 ± 0.4 µM.

And the IC50 [7]?
The IC50 was 16.6 ± 0.3 µM.

What about the IC50 [8] of the same compound?
The IC50 was 16.9 ± 0.2 µM.
